Data reported in patent US9539303B2, “Treatment of Ras-expressing tumors” (Celgene Corporation, priority 2006, dated 2017).
“And” between values parts separate entries of the source, which are not always exact repeats. Identical values can stand only once.

Assays:
acetylated histone 4 = assay: Tissue biomarker immunoblotting of PANC-1 xenograft tumors: acetylated histone 4; assay type: in vivo; details: PANC-1 tumors at study completion; FK228 5 mg/kg Q4Dx3, gemcitabine 80 mg/kg Q3Dx4, or both
Experimental: (§1) Specimen Collection: […] Tumor xenograft tissue and serum specimens were obtained from in vivo studies performed by the Preclinical Research Laboratory at the completion of the experiments. […] Serum was obtained from whole blood and stored frozen at -70° C. Tissue Biomarkers: Tumor levels of acetylated histone-4, histone-4, […] were quantified by immunoblotting as described. Briefly, frozen tissue was pulverized under liquid nitrogen and homogenized in hypotonic lysis buffer. Small aliquots of the extracts were used for analysis of protein concentration by micro-BCA assay with bovine serum albumin as a protein standard. An equal amount of extracts containing about 20-50 μg protein was electrophoresed in SDS polyacrylamide gels. Proteins were transferred to ImmunoBlot PVDF membrane and were probed with appropriate primary and secondary antibodies. The chemiluminescence signal was captured by autoradiography, quantified by densitometry and expressed as a ratio of actin in each sample lane. For each biomarker, means and standard errors were calculated in each treatment group. […] Following quantitative analysis of biomarker levels in each sample, the results were normalized for b-actin and expressed as percentages of untreated controls. […]

[1] = system: transformed (H, K, N-Ras and the rat Her-2/NeuT) NIH-3T3 cells; assay: 4-day proliferation assay, transformed NIH-3T3 cell lines; assay type: cell-based, mouse; details: 2 nM romidepsin
Experimental: A series of transformed NIH-3T3 cell likes were generated and a proliferation assay was performed in the presence of 2, 3, or 4 nM romidepsin. FIG. 23 illustrates the transformed morphology of the cells. FIG. 24 presents graphs of cell proliferation.

c-Myc = assay: Tissue biomarker immunoblotting of PANC-1 xenograft tumors: c-Myc; assay type: in vivo; details: PANC-1 tumors at study completion; FK228 5 mg/kg Q4Dx3, gemcitabine 80 mg/kg Q3Dx4, or both; actin-normalized vs control
Experimental: as §1

[2] = system: BxPC-3 human pancreatic tumor xenograft; assay: BxPC-3 human pancreatic tumor xenograft tumor growth inhibition study (Example 3); assay type: in vivo, female nude mice (nu/nu); details: for % TGI / Final tumor volume mean ± SEM: Day 29
Text: (Madison, Wis.). […] Tumor measurements were converted to cubic millimeter tumor volume using the formula^(5): […] TGI values for each treatment group are reported at study completion; these calculations are based on the final study day. […] Individual mice lacking palpable tumors were classified as undergoing complete regression (CR). Animals experiencing partial or complete tumor regressions were censored from TGI calculations. However, data from these animals was included in statistical analysis calculations. In addition, weight data from these animals was included in daily and final group calculations. Tumor Necrosis-Degree of tumor necrosis was rated at each tumor measurement using the following arbitrary index: […]

[3] = system: Panc-1 human pancreas tumors (oncogenic K-ras); assay: Panc-1 mouse xenograft model, tumor growth (Example 1); assay type: in vivo, female nude mice; details: Panc-1 xenograft; FK228 IV Q4Dx3 and/or gemcitabine IP Q3Dx4; vs vehicle control
Experimental: In this study, female nude mice were implanted subcutaneously (SC) by trocar with Panc-1 tumor fragments harvested from SC growing tumors in nude mice hosts. […] The day of treatment initiation was specified as Day 1. Vehicle control and FK228 were administered intravenously on a […] schedule (Days 1, 5, and 9). Gemcitabine was administered by an intraperitoneal injection on a […] schedule (Days 1, 4, 7, 10). Tumors were measured by Vernier calipers twice weekly.

[4] = Animal weight and drug toxicity, BxPC-3 study
Text: (§2) Model Information—Female nude mice (nu/nu) between 5 and 6 weeks of age weighing approximately 20 grams were obtained from Harlan, Inc. (Madison, Wis.). PANC-1, obtained from the ATCC, is a pancreas tumor cell line originating from a person^(1-2). BxPC-3, obtained from the American Type Culture Collection (ATCC), is a pancreas tumor cell line originating from a person^(3-4). PANC-1 Study: Animals were implanted subcutaneously (SC) by trocar with fragments of PANC-1 harvested from SC growing tumors in nude mice hosts. When tumors grew to approximately 135 cubic millimeters (mm^3) in size (17 days following implantation, animals were pair-matched by tumor size into treatment and control groups; each treatment group contained nine mice. BxPC-3 Study: Animals were implanted subcutaneously (SC) by trocar with fragments of BxPC-3 harvested from SC growing tumors in nude mice hosts. When tumors grew to approximately 85 cubic millimeters (mm^3) in size (19 days following implantation), animals were pair-matched by tumor size into treatment and control groups; each treatment group contained nine mice. Animals in both studies were ear-tagged and followed individually throughout the experiment.
(§3) Study Design and Dosing—Initial doses were administered on Day 1 following pair-matching; both experiments were carried out as tumor growth inhibition (TGI) studies. Animals were dosed intravenously (IV) via tail vein with FK228 once every four days for three treatments (Q4Dx3) or by intraperitoneal (IP) injection with gemcitabine once every three days for four treatments (Q3Dx4), either alone or in combination, at the doses listed below (Table 1). To serve as a negative control, FK228 vehicle (2% ethanol, 8% propylene glycol, 90% 0.9% saline) was injected on a Q4Dx3 schedule.
(§4) Animal Weights—Individual and group mean weights±SD and percent weight change through Day 25 (PANC-1) or Day 29 (BxPC-3) were recorded twice weekly until study completion beginning Day 1. Final group mean weights±SD and group nadir values are reported; weight data from individual animals experiencing technical or drug-related deaths was censored from final group calculations.
(§5) Moribundity/Mortality—Animals were observed twice weekly for general moribundity and daily for mortality. Animal deaths were assessed as drug-related or technical based on factors including gross observation and weight loss; reported animal death information includes type, number, and day of death for each group.

[5] = Animal weight and drug toxicity, PANC-1 study
Text: as §2, §3, §4, §5

[6] = BxPC-3 study, FK228 2.5 mg/kg IV Q4Dx3
[7] = BxPC-3 study, FK228 2.5 mg/kg IV Q4Dx3, 2.5 mg/kg
[8] = BxPC-3 study, FK228 5 mg/kg IV Q4Dx3
[9] = BxPC-3 study, FK228 5 mg/kg IV Q4Dx3, 5 mg/kg
[10] = FK228 2.5 mg/kg IV Q4Dx3, 2.5 mg/kg
[11] = FK228 5 mg/kg IV Q4Dx3, 5 mg/kg

## C/C=C1\NC(=O)[C@H]2CSSCC/C=C/[C@H](CC(=O)N[C@H](C(C)C)C(=O)N2)OC(=O)[C@H](C(C)C)NC1=O [FK228, romidepsin]
Acetylated histone 4
  levels of acetylated histone 4 vs control: over 2 fold
[1]
  inhibition of proliferation, transformed vs untransformed cells: selectively inhibited
c-Myc
  extent of inhibition of c-Myc expression: 50%
[2]; [6]
  % TGI: No TGI
  Activity according to NCI standards: inactive
  Tumor necrosis: 2/9 animals reported mild tumor necrosis
[2]; [7]
  Final tumor volume mean ± SEM: 2440±643 mm^3
  #PR/CR: 0/9 and 0/0
[2]; [8]
  % TGI: No TGI
  Activity according to NCI standards: inactive
  Tumor necrosis: 2/9 animals reported mild tumor necrosis
[2]; [9]
  Final tumor volume mean ± SEM: 2620±238 mm^3
  #PR/CR: 0/9 and 0/0
[2]; BxPC-3 study, at the evaluated doses and schedules
  calculated TGI values: No tumor growth inhibition
[2]; wildtype ras BxPC-3, all evaluated doses
  antitumor activity (overall conclusion): inactive
[3]
  tumor growth inhibition: 26%
[4]; Day 29, FK228 2.5 mg/kg IV Q4Dx3
  Final weight data % change: +10%
[4]; Day 29, FK228 2.5 mg/kg IV Q4Dx3, 2.5 mg/kg
  Final weight data mean ± SD: 25±2 G
[4]; Day 29, FK228 5 mg/kg IV Q4Dx3
  Final weight data % change: +7%
[4]; Day 29, FK228 5 mg/kg IV Q4Dx3, 5 mg/kg
  Final weight data mean ± SD: 24±1 G
[4]; FK228 2.5 mg/kg IV Q4Dx3
  Weight nadir % change: −5%
  Weight nadir day: 11
[4]; [10]
  Drug deaths total: 0/9 and 0
[4]; FK228 5 mg/kg IV Q4Dx3
  Weight nadir % change: −15%
  Weight nadir day: 11
[4]; [11]
  Drug deaths total: 0/9 and 0
[5]; Day 25, FK228 2.5 mg/kg IV Q4Dx3
  Final weight data % change: +8%
[5]; Day 25, FK228 2.5 mg/kg IV Q4Dx3, 2.5 mg/kg
  Final weight data mean ± SD: 23±2 G
[5]; Day 25, FK228 5 mg/kg IV Q4Dx3
  Final weight data % change: +9%
[5]; Day 25, FK228 5 mg/kg IV Q4Dx3, 5 mg/kg
  Final weight data mean ± SD: 25±2 G
[5]; FK228 2.5 mg/kg IV Q4Dx3
  Weight nadir % change: −9%
  Weight nadir day: 11
[5]; [10]
  Drug deaths total: 0/9 and 0
[5]; FK228 5 mg/kg IV Q4Dx3
  Weight nadir % change: −12%
  Weight nadir day: 11
[5]; [11]
  Drug deaths total: 0/9 and 0
